± gives the standard deviation of the averaged measurements.
Legend:
[1] = compound: CC(=O)NCC(=O)N1[C@@H]2CC[C@H]1c1ccc(Nc3ncc(C(F)(F)F)c(NC4CCC4)n3)cc12; experiment: surviving fraction relative to DMSO-only wells; higher = less growth inhibition; conditions: exposure time: 5 days
Procedure, shortened: (§1)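 At 250–500 cells per well in 384-well plates, log-phase tumour cell lines were seeded and, 24 hours on, exposed continuously for five days to inhibitors at 0.5, 1, 5, 10, 50, 100, 500 and 1000 nM. Viability readout was CellTiter-Glo luminescence, reported as surviving fraction normalised to the median of DMSO-only wells.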

PACLITAXEL [2] = compound: T1, CC(=O)O[C@H]1C(=O)[C@@]2(C)[C@H]([C@H](OC(=O)c3ccccc3)[C@]3(O)C[C@H](OC(=O)[C@H](O)[C@@H](NC(=O)c4ccccc4)c4ccccc4)C(C)=C1C3(C)C)[C@]1(OC(C)=O)CO[C@@H]1C[C@@H]2O [PACLITAXEL]; experiment: as above; conditions: exposure time: 5 days
Procedure, shortened: as §1

[3] = compound: CC(=O)c1c(C)c2cnc(Nc3ccc(N4CCNCC4)cn3)nc2n(C2CCCC2)c1=O; experiment: as above; conditions: exposure time: 5 days
Procedure, shortened: as §1

CAMPTOTHECIN [4] = compound: T2, CC[C@@]1(O)C(=O)OCc2c1cc1n(c2=O)Cc2cc3ccccc3nc2-1 [CAMPTOTHECIN]; experiment: as above; conditions: exposure time: 5 days
Procedure, shortened: as §1

YM155 [5] = compound: T3, COCC[n+]1c2c(n(Cc3cnccn3)c1C)C(=O)c1ccccc1C2=O [YM155]; experiment: as above; conditions: exposure time: 5 days
Procedure, shortened: as §1

GEFITINIB [6] = compound: T4, COc1cc2ncnc(Nc3ccc(F)c(Cl)c3)c2cc1OCCCN1CCOCC1 [GEFITINIB]; experiment: as above; conditions: exposure time: 5 days
Procedure, shortened: as §1

OSI-906 [7] = compound: T5, C[C@]1(O)C[C@@H](c2nc(-c3ccc4ccc(-c5ccccc5)nc4c3)c3c(N)nccn32)C1 [OSI-906]; experiment: as above; conditions: exposure time: 5 days
Procedure, shortened: as §1

CELECOXIB [8] = compound: T6, Cc1ccc(-c2cc(C(F)(F)F)nn2-c2ccc(S(N)(=O)=O)cc2)cc1 [CELECOXIB]; experiment: as above; conditions: exposure time: 5 days
Procedure, shortened: as §1

CARBOPLATIN [9] = compound: T7, O=C(O)C1(C(=O)O)CCC1.[NH2-].[NH2-].[Pt+2] [CARBOPLATIN]; experiment: as above; conditions: exposure time: 5 days
Procedure, shortened: as §1

[10] = compound: CC(=O)NCC(=O)N1[C@@H]2CC[C@H]1c1ccc(Nc3ncc(C(F)(F)F)c(NC4CCC4)n3)cc12; experiment: area under dose-response curve of surviving fraction (unscaled, Aref=0) (surviving fraction x log10(nM)); higher = more resistant; conditions: exposure time: 5 days; dose range 0.5-1000 nM
Procedure, shortened: (§2)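 Tumour cell lines in 384-well plates were exposed to eight inhibitor concentrations, from 0.5 to 1000 nM, for five days, and viability was read by CellTiter-Glo luminescence in three screens per line. Signals were normalised to DMSO-only wells, and 3-parameter logistic regression in the drc R package fitted dose-response survival curves to the surviving fractions. Area under the curve is given as the unscaled activity area. That area is taken over log10 dose with Aref = 0.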

PACLITAXEL [11] = compound: T1, PACLITAXEL; experiment: as above; conditions: exposure time: 5 days; dose range 0.5-1000 nM
Procedure, shortened: as §2

[12] = compound: CC(=O)c1c(C)c2cnc(Nc3ccc(N4CCNCC4)cn3)nc2n(C2CCCC2)c1=O; experiment: as above; conditions: exposure time: 5 days; dose range 0.5-1000 nM
Procedure, shortened: as §2

CAMPTOTHECIN [13] = compound: T2, CAMPTOTHECIN; experiment: as above; conditions: exposure time: 5 days; dose range 0.5-1000 nM
Procedure, shortened: as §2

YM155 [14] = compound: T3, YM155; experiment: as above; conditions: exposure time: 5 days; dose range 0.5-1000 nM
Procedure, shortened: as §2

GEFITINIB [15] = compound: T4, GEFITINIB; experiment: as above; conditions: exposure time: 5 days; dose range 0.5-1000 nM
Procedure, shortened: as §2

OSI-906 [16] = compound: T5, OSI-906; experiment: as above; conditions: exposure time: 5 days; dose range 0.5-1000 nM
Procedure, shortened: as §2

CELECOXIB [17] = compound: T6, CELECOXIB; experiment: as above; conditions: exposure time: 5 days; dose range 0.5-1000 nM
Procedure, shortened: as §2

CARBOPLATIN [18] = compound: T7, CARBOPLATIN; experiment: as above; conditions: exposure time: 5 days; dose range 0.5-1000 nM
Procedure, shortened: as §2

NCIH441 LUNG
surviving fraction ([1]; 0.5 nM): 0.945 ± 0.064 | surviving fraction ([1]; 1 nM): 0.954 ± 0.056 | surviving fraction ([1]; 5 nM): 0.939 ± 0.065 | surviving fraction ([1]; 10 nM): 0.927 ± 0.12 | surviving fraction ([1]; 50 nM): 0.991 ± 0.022 | surviving fraction ([1]; 100 nM): 0.856 ± 0.049 | surviving fraction ([1]; 500 nM): 0.626 ± 0.08 | surviving fraction ([1]; 1000 nM): 0.588 ± 0.0087 | surviving fraction (PACLITAXEL [2]; 0.5 nM): 0.961 ± 0.12 | surviving fraction (PACLITAXEL [2]; 1 nM): 0.93 ± 0.046 | surviving fraction (PACLITAXEL [2]; 5 nM): 0.529 ± 0.0097 | surviving fraction (PACLITAXEL [2]; 10 nM): 0.429 ± 0.032 | surviving fraction (PACLITAXEL [2]; 50 nM): 0.261 ± 0.013 | surviving fraction (PACLITAXEL [2]; 100 nM): 0.303 ± 0.018 | surviving fraction (PACLITAXEL [2]; 500 nM): 0.284 ± 0.013 | surviving fraction (PACLITAXEL [2]; 1000 nM): 0.304 ± 0.02 | surviving fraction ([3]; 0.5 nM): 1.16 ± 0.055 | surviving fraction ([3]; 1 nM): 1.1 ± 0.056 | surviving fraction ([3]; 5 nM): 1.064 ± 0.0076 | surviving fraction ([3]; 10 nM): 1.07 ± 0.02 | surviving fraction ([3]; 50 nM): 1.08 ± 0.093 | surviving fraction ([3]; 100 nM): 1.09 ± 0.052 | surviving fraction ([3]; 500 nM): 1.15 ± 0.14 | surviving fraction ([3]; 1000 nM): 1 ± 0.13 | surviving fraction (CAMPTOTHECIN [4]; 0.5 nM): 0.951 ± 0.045 | surviving fraction (CAMPTOTHECIN [4]; 1 nM): 0.896 ± 0.03 | surviving fraction (CAMPTOTHECIN [4]; 5 nM): 0.743 ± 0.019 | surviving fraction (CAMPTOTHECIN [4]; 10 nM): 0.474 ± 0.031 | surviving fraction (CAMPTOTHECIN [4]; 50 nM): 0.201 ± 0.02 | surviving fraction (CAMPTOTHECIN [4]; 100 nM): 0.114 ± 0.016 | surviving fraction (CAMPTOTHECIN [4]; 500 nM): 0.0587 ± 0.0095 | surviving fraction (CAMPTOTHECIN [4]; 1000 nM): 0.044 ± 0.003 | surviving fraction (YM155 [5]; 0.5 nM): 0.991 ± 0.038 | surviving fraction (YM155 [5]; 1 nM): 1.05 ± 0.024 | surviving fraction (YM155 [5]; 5 nM): 0.547 ± 0.064 | surviving fraction (YM155 [5]; 10 nM): 0.284 ± 0.023 | surviving fraction (YM155 [5]; 50 nM): 0.0333 ± 0.0011 | surviving fraction (YM155 [5]; 100 nM): 0.0273 ± 0.00058 | surviving fraction (YM155 [5]; 500 nM): 0.023 ± 0.001 | surviving fraction (YM155 [5]; 1000 nM): 0.0267 ± 0.0011 | surviving fraction (GEFITINIB [6]; 0.5 nM): 1.17 ± 0.048 | surviving fraction (GEFITINIB [6]; 1 nM): 1.15 ± 0.064 | surviving fraction (GEFITINIB [6]; 5 nM): 1.07 ± 0.089 | surviving fraction (GEFITINIB [6]; 10 nM): 1.114 ± 0.0055 | surviving fraction (GEFITINIB [6]; 50 nM): 1.07 ± 0.18 | surviving fraction (GEFITINIB [6]; 100 nM): 1.12 ± 0.18 | surviving fraction (GEFITINIB [6]; 500 nM): 1.01 ± 0.21 | surviving fraction (GEFITINIB [6]; 1000 nM): 0.963 ± 0.058 | surviving fraction (OSI-906 [7]; 0.5 nM): 0.976 ± 0.058 | surviving fraction (OSI-906 [7]; 1 nM): 1 ± 0.033 | surviving fraction (OSI-906 [7]; 5 nM): 0.993 ± 0.07 | surviving fraction (OSI-906 [7]; 10 nM): 0.969 ± 0.03 | surviving fraction (OSI-906 [7]; 50 nM): 1.04 ± 0.034 | surviving fraction (OSI-906 [7]; 100 nM): 1.03 ± 0.028 | surviving fraction (OSI-906 [7]; 500 nM): 0.841 ± 0.019 | surviving fraction (OSI-906 [7]; 1000 nM): 0.737 ± 0.048 | surviving fraction (CELECOXIB [8]; 0.5 nM): 1.16 ± 0.019 | surviving fraction (CELECOXIB [8]; 1 nM): 1.19 ± 0.043 | surviving fraction (CELECOXIB [8]; 5 nM): 1.1 ± 0.11 | surviving fraction (CELECOXIB [8]; 10 nM): 1.11 ± 0.035 | surviving fraction (CELECOXIB [8]; 50 nM): 1.11 ± 0.068 | surviving fraction (CELECOXIB [8]; 100 nM): 1.06 ± 0.17 | surviving fraction (CELECOXIB [8]; 500 nM): 1.06 ± 0.14 | surviving fraction (CELECOXIB [8]; 1000 nM): 1.1 ± 0.19 | surviving fraction (CARBOPLATIN [9]; 0.5 nM): 1.08 ± 0.027 | surviving fraction (CARBOPLATIN [9]; 1 nM): 1.12 ± 0.063 | surviving fraction (CARBOPLATIN [9]; 5 nM): 1.08 ± 0.049 | surviving fraction (CARBOPLATIN [9]; 10 nM): 1.13 ± 0.093 | surviving fraction (CARBOPLATIN [9]; 50 nM): 1.07 ± 0.2 | surviving fraction (CARBOPLATIN [9]; 100 nM): 0.961 ± 0.091 | surviving fraction (CARBOPLATIN [9]; 500 nM): 1.02 ± 0.16 | surviving fraction (CARBOPLATIN [9]; 1000 nM): 1.04 ± 0.21 | area under dose-response curve [10]: 2.94 | area under dose-response curve (PACLITAXEL [11]): 1.56 | area under dose-response curve [12]: 3.59 | area under dose-response curve (CAMPTOTHECIN [13]): 1.41 | area under dose-response curve (YM155 [14]): 1.12 | area under dose-response curve (GEFITINIB [15]): 3.59 | area under dose-response curve (OSI-906 [16]): 3.21 | area under dose-response curve (CELECOXIB [17]): 3.66 | area under dose-response curve (CARBOPLATIN [18]): 3.51
